# Results published in patent publication US10954214B2 (Janssen Pharmaceutica NV, priority 2016, dated 2021).
# pIC50: −log10 of the molar value. Read-outs that look alike come from different tables or passages of the source.
# Columns and labels:
# [1] = test system: IL6 secretion by TMD8 ABC-DLBCL cells; test: Human IL6 Mesoscale assay (TMD-8); type: cell-based; details: Homo sapiens, TMD8; TMD-8 cells, 24 h
# Procedure, shortened: (§1)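 TMD8 or OCI-LY3 cells (100,000/well) were exposed to compounds in 9 twofold dilutions from 15 μM to 58.6 nM (0.3% DMSO) for 24 h at 37 °C. Supernatant IL6 and IL10 were quantified by MSD electrochemiluminescence immunoassay. DMSO defined maximum signal and BTK inhibitor RN486 (30 nM–131 pM) defined maximum inhibition.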
# [2] = test system: IL10 secretion by TMD8 ABC-DLBCL cells; test: Human IL10 Mesoscale assay (TMD-8); type: cell-based; details: Homo sapiens, TMD8; TMD-8 cells, 24 h
# Procedure, shortened: as §1
# [3] = test system: IL6 secretion by OCI-LY3 ABC-DLBCL cells; test: Human IL6 Mesoscale assay (OCI-LY3); type: cell-based; details: 24 h
# Procedure, shortened: as §1
# [4] = test system: IL10 secretion by OCI-LY3 ABC-DLBCL cells; test: Human IL10 Mesoscale assay (OCI-LY3); type: cell-based; details: 24 h
# Procedure, shortened: as §1
# OCI-Ly3 cells = test: 4-day proliferation assay, OCI-Ly3; type: cell-based, human; details: 4 days incubation, CellTiterGLO, read-out: Anti-proliferation: OCI-LY-3 IC50
# Procedure, shortened: (§2)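 TMD8 and OCI-Ly3 cells were seeded at 10,000 per well and grown 4 days at 37° C, 5% CO2 without beta-mercaptoethanol. Viability was read by CellTiter-Glo luminescence. IC50 and Hill slope were fitted relative to the low control median.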
# TMD8 cells = test: 4-day proliferation assay, TMD8; type: cell-based; details: 4 days incubation, CellTiterGLO, read-out: Anti-proliferation: TMD-8 IC50
# Procedure, shortened: as §2
# [5] = biological target: full-length MALT1 protein (Strep-MALT1(1-824)-His) (Homo sapiens (Human), UniProt Q9UDY8); test: MALT1 Biochemical Protease Assay (Ac-LRSR-AMC substrate); details: 10 nM FL MALT1, 200 μM Ac-LRSR-AMC, 4 h at RT; read-out: MALT1_Biochemical activity (Ac-LRSR-amc) IC50
# Procedure, shortened: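 Full-length MALT1 pre-incubated with compounds (30 μM to 0.5 nM, 11 threefold steps) for 50 min at RT. After Ac-LRSR-AMC was added, the reaction ran 4 h at RT and AMC fluorescence was read. IC50 and Hill slope from curve fitting against no-enzyme and no-compound controls.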
# Jurkat cells = test: PMA Induced IL2 Production In Jurkat Cells; type: cell-based; details: Homo sapiens, PMA/Ionomycin, 20 h, read-out: IL-2 prod h Jurkat PMA IC50
# Method: Jurkat cells were maintained in complete RPMI 1640 media containing 10% fetal bovine serum, 10 mM HEPES, 100 units/mL of penicillin and 100 μg/mL of streptomycin. Prior to the assay, compounds were made 2- to 4-fold serial dilutions in DMSO. A volume of 10 μL of DMSO-diluted compound in each well were further diluted into 240 μL RPMI1640 complete media. Jurkat cells were harvested by centrifuge at 1200 RPM for 5 min, washed one time with RPMI 1640 media, and suspended in fresh complete RPMI 1640 media at concentration of 1.25×10^6 cell/mL. A volume of 160 uL of Jurkat cells (2×10^5 cells) were seeded in each well of 96 well plate-bottom plates. A volume of 20 uL of diluted compound in RMPI 1640 complete media were added to each well and incubated with Jurkat cells for 30 min at 37° C. in a 5% CO2 incubator. A volume 20 μL of diluted PMA/Ionomycin (81 nM/1.3 uM respectively, ebioscience, catalog number 00-4970-93) in RMPI 1640 complete media were added to each well. After incubation at 37° C. in 5% CO2 incubator for 20 h, supernatants were harvested. IL-2 concentration was assessed by ELISA (IL2 Duoset, R&D Systems, catalog number DY202). Colorimetric intensity at 450 nm was read by Spectramax plate reader and analyzed with Softmax Pro software. Cell viability was assessed by Cell Titer Glo kit (Promega, catalog number G7571) using Victor Luminescence reader (Victor 3V 4202938 by Perkin Elmer).
# Chain of full-length MALT1 protein (Strep-MALT1(1-824)-His) (Q9UDY8 whole entry): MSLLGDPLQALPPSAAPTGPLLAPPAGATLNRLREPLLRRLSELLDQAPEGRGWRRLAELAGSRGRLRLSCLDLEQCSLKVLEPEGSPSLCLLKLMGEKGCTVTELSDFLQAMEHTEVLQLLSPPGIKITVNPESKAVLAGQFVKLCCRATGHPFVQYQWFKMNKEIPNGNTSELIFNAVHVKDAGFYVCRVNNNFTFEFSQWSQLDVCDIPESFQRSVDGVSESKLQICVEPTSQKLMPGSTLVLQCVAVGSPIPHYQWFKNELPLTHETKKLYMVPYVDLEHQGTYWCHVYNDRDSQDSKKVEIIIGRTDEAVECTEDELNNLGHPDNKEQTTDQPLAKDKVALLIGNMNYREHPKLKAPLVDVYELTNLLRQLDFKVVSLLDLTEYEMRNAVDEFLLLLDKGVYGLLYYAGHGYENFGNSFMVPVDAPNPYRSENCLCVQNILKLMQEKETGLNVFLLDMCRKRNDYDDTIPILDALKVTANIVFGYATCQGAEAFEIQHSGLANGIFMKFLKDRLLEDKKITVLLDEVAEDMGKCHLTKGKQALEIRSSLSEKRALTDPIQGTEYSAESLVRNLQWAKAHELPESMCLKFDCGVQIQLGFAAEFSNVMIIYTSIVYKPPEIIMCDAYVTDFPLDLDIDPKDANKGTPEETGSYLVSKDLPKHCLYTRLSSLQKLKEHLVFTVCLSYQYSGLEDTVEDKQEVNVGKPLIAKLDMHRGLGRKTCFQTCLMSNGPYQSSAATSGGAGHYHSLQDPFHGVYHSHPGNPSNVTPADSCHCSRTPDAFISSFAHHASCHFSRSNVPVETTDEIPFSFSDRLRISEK
Compound,pIC50 [1],pIC50 [2],pIC50 ([3]; Homo sapiens),pIC50 ([4]; Homo sapiens),"pIC50 (OCI-Ly3 cells; Homo sapiens, 96 h)","pIC50 (TMD8 cells; Homo sapiens, 96 h)",pIC50 [5],pIC50 (Jurkat cells),pIC50 [3],pIC50 [4],pIC50 (OCI-Ly3 cells),pIC50 (TMD8 cells)
N#Cc1cc(NC(=O)c2cnn(-c3ccnc4ccccc34)c2C(F)(F)F)ccc1-n1nccn1,6.96,7.00,7.47,7.40,6.39,5.42,,,,,,
"N#Cc1cc(NC(=O)c2cnn(-c3cccc4ccccc34)c2C(F)(F)F)ccn1 [Cpd 1, N-(2-Cyanopyridin-4-yl)-1-(naphthalen-1-yl)-5-(trifluoromethyl)-1H-pyrazole-4-carboxamide]",,,,,,,6.41,6.51,,,,
"O=C(Nc1cnc(-n2ncc(CO)n2)c(Cl)c1)c1cnn(-c2cccc3c(=O)[nH]ccc23)c1C(F)(F)F [Cpd 115, N-(5-chloro-6-(4-(hydroxymethyl)-2H-1,2,3-triazol-2-yl)pyridin-3-yl)-1-(1-oxo-1,2-dihydroisoquinolin-5-yl)-5-(trifluoromethyl)-1H-pyrazole-4-carboxamide]",7.27,7.34,7.89,8.00,5.92,4.70,7.92,,,,,
"O=C(Nc1cnc(-n2nccn2)c(Cl)c1)c1cnn(-c2cccc3c(=O)[nH]ccc23)c1C(F)(F)F [Cpd 116, N-(5-chloro-6-(2H-1,2,3-triazol-2-yl)pyridin-3-yl)-1-(1-hydroxyisoquinolin-5-yl)-5-(trifluoromethyl)-1H-pyrazole-4-carboxamide]",7.89,7.60,7.74,7.74,6.46,5.16,7.82,,,,,
"O=C(Nc1ccc(-n2nccn2)c(Cl)c1)c1cnn(-c2cccc3c(=O)[nH]ccc23)c1C(F)(F)F [Cpd 129, N-(3-chloro-4-(2H-1,2,3-triazol-2-yl)phenyl)-1-(1-oxo-1,2-dihydroisoquinolin-5-yl)-5-(trifluoromethyl)-1H-pyrazole-4-carboxamide]",6.92,6.91,7.74,7.85,6.75,5.61,7.80,,,,,
"CN(C)Cc1cnn(-c2ncc(NC(=O)c3cnn(-c4cccc5ncccc45)c3C(F)(F)F)cc2Cl)n1 [Cpd 137, N-(5-chloro-6-(4-((dimethylamino)methyl)-2H-1,2,3-triazol-2-yl)pyridin-3-yl)-1-(quinolin-5-yl)-5-(trifluoromethyl)-1H-pyrazole-4-carboxamide]",6.77,6.70,7.59,7.77,6.09,5.62,7.64,,,,,
"O=C(Nc1cnc(-n2nccn2)c(Cl)c1)c1cnn(-c2cccc3ncsc23)c1C(F)(F)F [Cpd 153, 1-(benzo[d]thiazol-7-yl)-N-(5-chloro-6-(2H-1,2,3-triazol-2-yl)pyridin-3-yl)-5-(trifluoromethyl)-1H-pyrazole-4-carboxamide]",6.85,6.79,7.27,7.09,6.58,5.42,7.92,,,,,
"O=C(Nc1cnc(-n2nccn2)c(Cl)c1)c1cnn(-c2cccc3scnc23)c1C(F)(F)F [Cpd 306, 1-(benzo[d]thiazol-4-yl)-N-(5-chloro-6-(2H-1,2,3-triazol-2-yl)pyridin-3-yl)-5-(trifluoromethyl)-1H-pyrazole-4-carboxamide]",< 5.52,< 5.52,< 5.52,5.58,6.27,5.82,7.24,,,,,
"N#Cc1cc(NC(=O)c2cnn(-c3ncnc4ccsc34)c2C(F)(F)F)cnc1-n1nccn1 [Cpd 315, N-(5-cyano-6-(2H-1,2,3-triazol-2-yl)pyridin-3-yl)-1-(thieno[3,2-d]pyrimidin-4-yl)-5-(trifluoromethyl)-1H-pyrazole-4-carboxamide]",6.35,6.47,7.02,6.88,5.96,5.17,7.48,,,,,
"CC(O)c1ncc(-n2ncc(C(=O)Nc3cnc(-n4nccn4)c(Cl)c3)c2C(F)(F)F)c2ccsc12 (stereo not shown) [Cpd 376, N-(5-chloro-6-(2H-1,2,3-triazol-2-yl)pyridin-3-yl)-1-(7-(1-hydroxyethyl)thieno[2,3-c]pyridin-4-yl)-5-(trifluoromethyl)-1H-pyrazole-4-carboxamide]",,,7.24,7.30,5.97,5.84,7.62,,,,,
"NC(=O)c1ncc(-n2ncc(C(=O)Nc3cnc(-n4nccn4)c(Cl)c3)c2C(F)(F)F)c2ccccc12 [Cpd 387, 4-(4-((5-chloro-6-(2H-1,2,3-triazol-2-yl)pyridin-3-yl)carbamoyl)-5-(trifluoromethyl)-1H-pyrazol-1-yl)isoquinoline-1-carboxamide]",,,6.85,7.02,6.16,5.66,7.52,,,,,
"O=C(Nc1cnc(-n2nccn2)c(Cl)c1)c1cnn(-c2cc(=O)[nH]c3ccccc23)c1C(F)(F)F [Cpd 418, N-(5-chloro-6-(2H-1,2,3-triazol-2-yl)pyridin-3-yl)-1-(2-oxo-1,2-dihydroquinolin-4-yl)-5-(trifluoromethyl)-1H-pyrazole-4-carboxamide]",,,7.02,7.15,6.33,5.44,6.26,,,,,
"Cc1cc(-n2nccn2)c(C#N)cc1NC(=O)c1cnn(-c2cccc3c(=O)[nH]ccc23)c1C(F)(F)F [Cpd 446, N-(5-cyano-2-methyl-4-(2H-1,2,3-triazol-2-yl)phenyl)-1-(1-oxo-1,2-dihydroisoquinolin-5-yl)-5-(trifluoromethyl)-1H-pyrazole-4-carboxamide]",,,7.66,7.89,5.97,< 4.70,7.49,,,,,
"O=C(Nc1cnc(-n2nccn2)c(Cl)c1)c1cnn(-c2cncc3sccc23)c1C(F)(F)F [Cpd 447, N-(5-chloro-6-(2H-1,2,3-triazol-2-yl)pyridin-3-yl)-1-(thieno[2,3-c]pyridin-4-yl)-5-(trifluoromethyl)-1H-pyrazole-4-carboxamide]",,,7.34,7.38,6.50,5.66,6.35,,,,,
"O=C(Nc1cnc(-n2nccn2)c(Cl)c1)c1cnn(-c2cnc(O)c3ccccc23)c1C(F)(F)F [Cpd 448, N-(5-chloro-6-(2H-1,2,3-triazol-2-yl)pyridin-3-yl)-1-(1-hydroxyisoquinolin-4-yl)-5-(trifluoromethyl)-1H-pyrazole-4-carboxamide]",,,6.93,7.10,6.26,5.25,5.89,,,,,
"O=C(Nc1cnc(-n2nccn2)c(Cl)c1)c1cnn(-c2ccnc3ccccc23)c1C(F)(F)F [Cpd 450, N-(5-chloro-6-(2H-1,2,3-triazol-2-yl)pyridin-3-yl)-1-(quinolin-4-yl)-5-(trifluoromethyl)-1H-pyrazole-4-carboxamide]",,,6.97,7.15,6.53,5.55,8.00,,,,,
N-(4-(4-(aminomethyl)-1H-pyrazol-1-yl)-3-chlorophenyl)-1-(quinolin-5-yl)-5-(trifluoromethyl)-1H-pyrazole-4-carboxamide [Cpd 174],,,,,,,7.23,,6.60,6.95,6.09,5.77
